test system: RSV A2 virus; experiment: RSV CPE assay; details: human respiratory syncytial virus, HEp-2, 120 h, read-out: RSV A2 (Hep-2 cell) EC50

First: CC(C)C(=O)OCOP(=O)(OC[C@H]1O[C@@](C#N)(c2ccc3c(N)ncnn23)[C@H](OC(=O)C(C)C)[C@@H]1OC(=O)C(C)C)Oc1ccc(C(C)(C)C)cc1 (mixture of isomers) [Compound 26, (2R,3R,4R,5R)-2-(4-aminopyrrolo[2,1-f][1,2,4]triazin-7-yl)-5-((((4-tert-butylphenoxy)((isobutyryloxy)methoxy)phosphoryl)oxy)methyl)-2-cyanotetrahydrofuran-3,4-diyl bis(2-methylpropionate)]
Second: CC(C)C(=O)O[C@H]1[C@@H](OC(=O)C(C)C)[C@](C#N)(c2ccc3c(N)ncnn23)O[C@@H]1COP(=O)(OCCSC(=O)C(C)(C)C)Oc1ccc(C(C)(C)C)cc1 (mixture of isomers) [Compound 27, (2R,3R,4R,5R)-2-(4-aminopyrrolo[2,1-f][1,2,4]triazin-7-yl)-5-((((4-tert-butylphenoxy)(2-(pivaloylthio)ethoxy)phosphoryl)oxy)methyl)-2-cyanotetrahydrofuran-3,4-diyl bis(2-methylpropionate)]
The EC50 of the first is higher: over 1000 nM for the first, 200 to 500 nM for the second.

First: CC(C)OC(=O)OCO[P@@](=O)(N[C@@H](C)C(=O)OC(C)C)OC[C@H]1O[C@@](C#N)(c2ccc3c(N)ncnn23)[C@H](OC(=O)C(C)C)[C@@H]1OC(=O)C(C)C [Compound 3a, (2R,3R,4R,5R)-2-(4-aminopyrrolo[2,1-f][1,2,4]triazin-7-yl)-2-cyano-5-((((R)-(((S)-1-isopropoxy-1-oxopropan-2-yl)amino)(((isopropoxycarbonyl)oxy)methoxy)phosphoryl)oxy)methyl)tetrahydrofuran-3,4-diyl bis(2-methylpropionate)]
Second: CC(C)OC(=O)OCO[P@](=O)(N[C@@H](C)C(=O)OC(C)C)OC[C@H]1O[C@@](C#N)(c2ccc3c(N)ncnn23)[C@H](OC(=O)C(C)C)[C@@H]1OC(=O)C(C)C [Compound 3b, (2R,3R,4R,5R)-2-(4-aminopyrrolo[2,1-f][1,2,4]triazin-7-yl)-2-cyano-5-((((S)-(((S)-1-isopropoxy-1-oxopropan-2-yl)amino)(((isopropoxycarbonyl)oxy)methoxy)phosphoryl)oxy)methyl)tetrahydrofuran-3,4-diyl bis(2-methylpropionate)]
The EC50 of the first is higher: 200 to 500 nM for the first, 100 to 200 nM for the second. The second is the more potent here.

Compared with `CCC(CC)COC(=O)[C@H](C)N[P@](=O)(OCOC(=O)OC(C)C)OC[C@H]1O[C@@](C#N)(c2ccc3c(N)ncnn23)[C@H](OC(=O)C(C)C)[C@@H]1OC(=O)C(C)C` [Compound 7a, (2R,3R,4R,5R)-2-(4-aminopyrrolo[2,1-f][1,2,4]triazin-7-yl)-2-cyano-5-((((R)-(((S)-1-(2-ethylbutoxy)-1-oxopropan-2-yl)amino)(((isopropoxycarbonyl)oxy)methoxy)phosphoryl)oxy)methyl)tetrahydrofuran-3,4-diyl bis(2-methylpropionate)], `CCC(CC)COC(=O)[C@H](C)N[P@@](=O)(OCOC(=O)OC(C)C)OC[C@H]1O[C@@](C#N)(c2ccc3c(N)ncnn23)[C@H](OC(=O)C(C)C)[C@@H]1OC(=O)C(C)C` [Compound 7b, (2R,3R,4R,5R)-2-(4-aminopyrrolo[2,1-f][1,2,4]triazin-7-yl)-2-cyano-5-((((S)-(((S)-1-(2-ethylbutoxy)-1-oxopropan-2-yl)amino)(((isopropoxycarbonyl)oxy)methoxy)phosphoryl)oxy)methyl)tetrahydrofuran-3,4-diyl bis(2-methylpropionate)] is lower in EC50: 200 to 500 nM for the first, 100 to 200 nM for the second. The second is the more potent here.

`CCC(CC)COC(=O)[C@H](C)N[P@@](=O)(OCOC(=O)C(C)(C)C)OC[C@H]1O[C@@](C#N)(c2ccc3c(N)ncnn23)[C@H](OC(=O)C(C)C)[C@@H]1OC(=O)C(C)C` [Compound 11b, (2R,3R,4R,5R)-2-(4-aminopyrrolo[2,1-f][1,2,4]triazin-7-yl)-2-cyano-5-((((S)-(((S)-1-(2-ethylbutoxy)-1-oxopropan-2-yl)amino)((pivaloyloxy)methoxy)phosphoryl)oxy)methyl)tetrahydrofuran-3,4-diyl bis(2-methylpropionate)] was tested, and the EC50 was 200 to 500 nM.

— patent EP4617278A1, “NUCLEOTIDE ANALOG, AND COMPOSITION AND USE THEREOF” (priority 2022, dated 2024)
